Data from BindingDB's records for patent US11826435 (University of Saskatchewan, 2023).

Target: T1, Lysosomal acid glucosylceramidase (Homo sapiens, UniProt P04062)
T1 sequence (P04062 whole entry): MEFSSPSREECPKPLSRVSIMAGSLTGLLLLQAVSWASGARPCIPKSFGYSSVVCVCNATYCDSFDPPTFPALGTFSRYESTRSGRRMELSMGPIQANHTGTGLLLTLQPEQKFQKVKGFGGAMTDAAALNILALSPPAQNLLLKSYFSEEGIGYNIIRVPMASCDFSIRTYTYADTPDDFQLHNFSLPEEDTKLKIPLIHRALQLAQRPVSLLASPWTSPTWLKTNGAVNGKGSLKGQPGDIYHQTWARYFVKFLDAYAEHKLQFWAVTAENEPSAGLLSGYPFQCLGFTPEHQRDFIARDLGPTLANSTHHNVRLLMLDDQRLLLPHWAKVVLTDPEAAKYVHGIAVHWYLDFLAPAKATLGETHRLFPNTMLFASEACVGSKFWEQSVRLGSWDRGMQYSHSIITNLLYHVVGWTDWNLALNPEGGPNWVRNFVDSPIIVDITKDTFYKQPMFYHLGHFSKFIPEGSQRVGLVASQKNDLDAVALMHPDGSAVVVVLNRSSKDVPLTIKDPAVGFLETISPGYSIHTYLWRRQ
Experiment: Enzyme Kinetics - Measuring Inactivation Rates of Inhibitors
Experimental: Inactivation solutions contained a final concentration of 16.55 nM of Cerezyme (Recombinant GCase) in 200 μL of Reaction Buffer (50 mM acetate, 0.2% v/v Triton X-100, 0.3% w/v sodium taurocholate, pH 5.5). The Cerezyme was collected from leftover patient vials and had approximately 8275 nM in the vial. […] Once the inhibitor was added this was considered time=0 minutes. Meanwhile a 96 well plate inside a Biotek Synergy 4 hybrid multi-mode reader at 37 C. was being incubated. In the wells of the plate were waiting a high concentration ([…]) of 2,4-DNP-β-Glc substrate in 180 μL of Reaction Buffer. As the inhibitor inactivation was occurring, 20 μL aliquots were taken from the inactivation solutions and diluted on the plate containing the substrate bringing the final concentration of the substrate to […]. Once all the aliquots were added the solution in the wells was measured for absorbance at 400 nm for 8 minutes. At this time the measurements were paused and the next set of aliquots were taken to see how residual enzyme activity changes over time.

SMILES | IC50 [µM] | Ki [µM]
O=[N+]([O-])c1ccc(OC2O[C@H](CO)[C@@H](O)[C@H](O)[C@H]2F)c([N+](=O)[O-])c1 (some centres not stated) [US11826435, Compound 1.1] | > 1000 | –
O[C@H]1[C@H](O)[C@@H](O)[C@@H]2O[C@@H]2[C@@H]1O [US11826435, Compound 1.2] | – | 140
